Results as given in patent EP4707280A1, “1,4-CINEOLE DERIVATIVE AND INTERMEDIATE THEREOF, HERBICIDE CONTAINING SAID DERIVATIVE AS ACTIVE INGREDIENT, METHOD FOR USING HERBICIDE, AND METHOD FOR PREPARING AGROCHEMICAL COMPOSITION” (HOKKO CHEMICAL INDUSTRY CO., LTD., priority 2023, dated 2024).

What was measured:
Type in all cases: in vivo
[1] = test system: Digitaria ciliaris; test: Test Example 7: herbicidal effect test by soil application in upland field (low dose); conditions: Digitaria ciliaris, 7.5 g per 10 ares, sprayed one day after sowing, 14 days after application, read-out: weed inhibition rate
Method in brief: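 Low-dose soil treatment at 7.5 g a.i. per 10 a, applied as a diluted emulsifiable concentrate sprayed onto the soil surface one day after sowing in upland alluvial loam. Duplicate pots; percent weed inhibition is read 14 days after application.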

[2] = test system: Echinochloa crus-galli var. formosensis; test: Test Example 5: herbicidal effect test by soil application in paddy rice (low dose); conditions: Echinochloa crus-galli, soil, 336 h; 7.5 g per 10 ares; applied immediately after sowing, flooded pots; 14 days after application; read-out: weed inhibition rate
Method in brief: (§1)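 Pots of puddled, fertilized paddy soil receive 30 seeds per species at 0–1 cm depth and are flooded to about 3 cm. The diluted emulsifiable concentrate is then dropped onto the water, delivering 7.5 g active ingredient per 10 ares. Greenhouse grown; herbicidal effect scored 14 days later, two replicates.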

[3] = test system: Monochoria vaginalis; test: Test Example 2: herbicidal effect test by application during growth period of paddy rice; conditions: Pontederia vaginalis; 120 g per 10 ares; applied seven days after sowing, flooded pots; 14 days after application; read-out: weed inhibition rate
Method in brief: (§2)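 Weeds sown into puddled, flooded paddy soil received a post-emergence water application of emulsifiable concentrate at 120 g active ingredient per 10 ares, seven days after sowing. Herbicidal effect was rated 14 days later as inhibition (%).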

[4] = test system: Echinochloa crus-galli var. formosensis; test: as above; conditions: Echinochloa crus-galli; 120 g per 10 ares; applied seven days after sowing, flooded pots; 14 days after application; read-out: weed inhibition rate
Method in brief: as §2

[5] = test system: Scirpus juncoides; test: as above; conditions: Schoenoplectiella juncoides; 120 g per 10 ares; applied seven days after sowing, flooded pots; 14 days after application; read-out: weed inhibition rate
Method in brief: as §2

[6] = test system: Scirpus juncoides; test: Test Example 5: herbicidal effect test by soil application in paddy rice (low dose); conditions: Schoenoplectiella juncoides, 336 h, 7.5 g per 10 ares, applied immediately after sowing, flooded pots, 14 days after application, read-out: weed inhibition rate
Method in brief: as §1

[7] = test system: Chenopodium album; test: Test Example 3: herbicidal effect test by soil application in upland field; conditions: 120 g per 10 ares, sprayed one day after sowing, 14 days after application, read-out: weed inhibition rate
Method in brief: (§3)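 Weed inhibition (%) was assessed 14 days after treatment, in duplicate per concentration group. Seeds had been mixed into the upper 1 cm of upland alluvial loam, and the soil surface was sprayed one day later with the diluted emulsifiable concentrate at 120 g active ingredient per 10 ares.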

[8] = test system: Monochoria vaginalis; test: Test Example 6: herbicidal effect test by application during growth period of paddy rice (low dose); conditions: Pontederia vaginalis; 7.5 g per 10 ares; applied seven days after sowing, flooded pots; 14 days after application; read-out: weed inhibition rate
Method in brief: (§4)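 Puddled, fertilised paddy soil was sown with 30 seeds per species and flooded to about 3 cm. After 7 days in a glass greenhouse, the diluted emulsifiable concentrate went into the water by dropper at 7.5 g/10 a. Effect scored at 14 days.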

[9] = test system: Scirpus juncoides; test: as above; conditions: Schoenoplectiella juncoides; 7.5 g per 10 ares; applied seven days after sowing, flooded pots; 14 days after application; read-out: weed inhibition rate
Method in brief: as §4

[10] = test system: Monochoria vaginalis; test: Test Example 5: herbicidal effect test by soil application in paddy rice (low dose); conditions: Pontederia vaginalis, 336 h, 7.5 g per 10 ares, applied immediately after sowing, flooded pots, 14 days after application, read-out: weed inhibition rate
Method in brief: as §1

[11] = test system: Amaranthus viridis; test: Test Example 3: herbicidal effect test by soil application in upland field; conditions: Amaranthus viridis, 120 g per 10 ares, sprayed one day after sowing, 14 days after application, read-out: weed inhibition rate
Method in brief: as §3

CC(C)[C@]12C[C@@H](OCc3ccccc3F)[C@](C)(C[C@@H]1Br)O2 [1-19, (1S,2R,4R,5S)-5-bromo-2-[(2-fluorophenyl)methoxy]-1-methyl-4-isopropyl-7-oxabicyclo[2.2.1]heptane]
≥ 80%: inhibition at 75 g/ha [1] | inhibition at 75 g/ha [2] | inhibition at 1200 g/ha [3] | inhibition at 1200 g/ha [4] | inhibition at 1200 g/ha [5] | inhibition at 75 g/ha [6] | inhibition at 1200 g/ha [7]

CC(C)[C@]12C[C@@H](OCc3c(F)cccc3F)[C@](C)(CC1C)O2 (stereo partly drawn) [1-111, (1S,2R,4R)-2-((2,6-difluorobenzyl)oxy)-4-isopropyl-1,5-dimethyl-7-oxabicyclo[2.2.1]heptane]
≥ 80%: inhibition at 75 g/ha [1] | inhibition at 75 g/ha [2] | inhibition at 1200 g/ha [3] | inhibition at 1200 g/ha [4] | inhibition at 1200 g/ha [5] | inhibition at 1200 g/ha [7]

CCC1C[C@]2(C)O[C@@]1(C(C)C)C[C@H]2OCc1ccccc1C (stereo partly drawn) [1-123, (1R,4S,5R)-2-ethyl-1-isopropyl-4-methyl-5-((2-methylbenzyl)oxy)-7-oxabicyclo[2.2.1]heptane]
≥ 80%: inhibition at 75 g/ha [1] | inhibition at 75 g/ha [2] | inhibition at 1200 g/ha [4] | inhibition at 1200 g/ha [7]

CCC1C[C@]2(C)O[C@@]1(C(C)C)C[C@H]2OCc1ccccc1F (stereo partly drawn) [1-126, (1R,4S,5R)-2-ethyl-5-[(2-fluorobenzyl)oxy]-1-isopropyl-4-methyl-7-oxabicyclo[2.2.1]heptane]
≥ 80%: inhibition at 75 g/ha [1] | inhibition at 75 g/ha [2] | inhibition at 1200 g/ha [4] | inhibition at 1200 g/ha [7]

CCO[C@H]1C[C@]2(C)O[C@@]1(C(C)C)C[C@H]2OCc1ccccc1F [1-183, (1S,2R,4R,5S)-5-ethoxy-2-[(2-fluorophenyl)methoxy]-1-methyl-4-isopropyl-7-oxabicyclo[2.2.1]heptane]
≥ 80%: inhibition at 75 g/ha [1] | inhibition at 75 g/ha [2] | inhibition at 75 g/ha [8] | inhibition at 75 g/ha [9] | inhibition at 1200 g/ha [3] | inhibition at 1200 g/ha [4] | inhibition at 1200 g/ha [5] | inhibition at 75 g/ha [10] | inhibition at 75 g/ha [6]

CC(C)[C@]12C[C@@H](OCc3ccc(F)cc3)[C@](C)(C[C@@H]1Br)O2 [1-691, (1S,2R,4R,5S)-5-bromo-2-[(4-fluorophenyl)methoxy]-1-methyl-4-isopropyl-7-oxabicyclo[2.2.1]heptane]
≥ 80%: inhibition at 75 g/ha [1] | inhibition at 75 g/ha [2] | inhibition at 75 g/ha [8] | inhibition at 75 g/ha [9] | inhibition at 1200 g/ha [3] | inhibition at 1200 g/ha [4] | inhibition at 1200 g/ha [5] | inhibition at 75 g/ha [10] | inhibition at 75 g/ha [6]

CC(C)[C@]12C[C@@H](OCc3ccsc3)[C@](C)(C[C@@H]1Br)O2 [1-722, (1S,2R,4R,5S)-5-bromo-1-methyl-4-isopropyl-2-(thiophen-3-ylmethoxy)-7-oxabicyclo[2.2.1]heptane]
≥ 80%: inhibition at 75 g/ha [1] | inhibition at 75 g/ha [2] | inhibition at 75 g/ha [8] | inhibition at 75 g/ha [9] | inhibition at 1200 g/ha [3] | inhibition at 1200 g/ha [4] | inhibition at 1200 g/ha [5] | inhibition at 75 g/ha [10] | inhibition at 75 g/ha [6]

CC(C)C12CC(OCc3ccccc3F)C(C)(CC1Br)O2 (stereo not shown) [1-1355, 5-bromo-2-[(2-fluorophenyl)methoxy]-1-methyl-4-isopropyl-7-oxabicyclo[2.2.1]heptane]
≥ 80%: inhibition at 75 g/ha [1] | inhibition at 75 g/ha [2] | inhibition at 75 g/ha [8] | inhibition at 75 g/ha [9] | inhibition at 1200 g/ha [3] | inhibition at 1200 g/ha [4] | inhibition at 1200 g/ha [5] | inhibition at 75 g/ha [10] | inhibition at 75 g/ha [6]

Cc1cccc(F)c1CO[C@@H]1C[C@]2(C(C)C)O[C@@]1(C)CC2=O [2-353, (1R,4S,5R)-5-((2-fluoro-6-methylbenzyl)oxy)-1-isopropyl-4-methyl-7-oxabicyclo[2.2.1]heptan-2-one]
≥ 80%: inhibition at 75 g/ha [1] | inhibition at 75 g/ha [2] | inhibition at 75 g/ha [8] | inhibition at 75 g/ha [9] | inhibition at 1200 g/ha [3] | inhibition at 1200 g/ha [4] | inhibition at 1200 g/ha [5] | inhibition at 75 g/ha [10] | inhibition at 75 g/ha [6]

CC(C)[C@]12C[C@@H](OCc3c(F)cccc3Br)[C@](C)(CC1=O)O2 [2-355, (1R,4S,5R)-5-((2-bromo-6-fluorobenzyl)oxy)-1-isopropyl-4-methyl-7-oxabicyclo[2.2.1]heptan-2-one]
≥ 80%: inhibition at 75 g/ha [1] | inhibition at 75 g/ha [2] | inhibition at 75 g/ha [8] | inhibition at 75 g/ha [9] | inhibition at 1200 g/ha [3] | inhibition at 1200 g/ha [4] | inhibition at 1200 g/ha [5] | inhibition at 75 g/ha [10] | inhibition at 75 g/ha [6]

CC(C)[C@]12C=C[C@](C)(O1)[C@H](OCc1ccccc1)C2 [3-1, (1R,4S,5R)-4-methyl-5-phenylmethoxy-1-isopropyl-7-oxabicyclo[2.2.1]hept-2-ene]
≥ 80%: inhibition at 75 g/ha [1] | inhibition at 75 g/ha [2] | inhibition at 75 g/ha [8] | inhibition at 75 g/ha [9] | inhibition at 1200 g/ha [3] | inhibition at 1200 g/ha [4] | inhibition at 1200 g/ha [5] | inhibition at 75 g/ha [10] | inhibition at 75 g/ha [6]

Cc1ccccc1CO[C@@H]1C[C@@]2(C(C)C)C=C[C@]1(C)O2 [3-2, (1R,4S,5R)-4-methyl-5-[(2-methylphenyl)methoxy]-1-isopropyl-7-oxabicyclo[2.2.1]hept-2-ene]
≥ 80%: inhibition at 75 g/ha [1] | inhibition at 75 g/ha [2] | inhibition at 75 g/ha [8] | inhibition at 75 g/ha [9] | inhibition at 1200 g/ha [3] | inhibition at 1200 g/ha [4] | inhibition at 1200 g/ha [5] | inhibition at 75 g/ha [10] | inhibition at 75 g/ha [6] | inhibition at 1200 g/ha [11]
